Experimental data as given in patent US8202892B2, “Advanced glycation end products as active ingredients” (Henkel AG & Co. KGaA, priority 2007, dated 2012).

Tests used:
Assay type in all cases: cell-based
IGFBP3 = experiment: Relative gene expression in reconstructed dermal papillae: IGFBP3; conditions: 24 hours, untreated medium = 1.00
Protocol: (§1) Reconstructed dermal papillae as described in European patent 1 455 854 were systemically treated for 24 hours with each of the test substances listed in Table 7 in the cited concentrations. The relative gene expression profile was determined for the markers HGF and KGF (important markers of the anagen phase of the hair cycle) and TGF-beta 1, TGF-beta 2 and IGFBP3 (important markers of the catagen phase of the hair cycle). Expression for incubation with the untreated medium served as the reference; values presented in the Table illustrate the differential gene expression. A differential gene expression that is 1.66 times or greater than the absolute numerical value of the control gene expression is regarded as significant.

TGF-beta 2 = experiment: Relative gene expression in reconstructed dermal papillae: TGF-beta 2; conditions: 24 hours, untreated medium = 1.00
Protocol: as §1

KGF = experiment: Relative gene expression in reconstructed dermal papillae: KGF; conditions: 24 hours, untreated medium = 1.00
Protocol: as §1

TGF-beta 1 = experiment: Relative gene expression in reconstructed dermal papillae: TGF-beta 1; conditions: 24 hours, untreated medium = 1.00
Protocol: as §1

HGF = experiment: Relative gene expression in reconstructed dermal papillae: HGF; conditions: 24 hours, untreated medium = 1.00, 1.66 times or greater significant
Protocol: as §1

[1] = test system: markers of anagen and catagen phase of the hair cycle; experiment: Relative gene expression profile of the markers of the hair cycle (statements in words); conditions: 0.1 wt. %
Protocol: as §1

fibroblasts [2] = experiment: Relative vitality (cell activity) of cultivated fibroblasts, redox dye WST-1; conditions: untreated control = 100%
Protocol: Vitality of the cultivated cells was determined by means of redox dyes. These dyes penetrate into the cells and are reduced by electron capture at the external mitochondrial membrane. This reduction requires a color change that is subsequently photometrically analyzed. Vitality was quantified by setting the untreated control to 100% and the measured values of the samples treated with the substances were in reference to that figure. Cell damaging means a relative vitality of less than 80%, and cell activating means greater than or equal to 120%. Cell Proliferation Reagent Wst-1 (Roche Applied Science, Mannheim, Germany) was used for this test.

fibroblasts [3] = experiment: Proliferation of fibroblasts by CyQuant; conditions: for Proliferation MW: untreated control = 100%
Description: Determination of the proliferation of the cultivated cells provides information on the status of the cell division of the treated cells. Both cell division stimulating and cell division inhibiting substances can be defined with this analysis. An outstanding feature during the cell division is the duplication of the DNA. During the new synthesis, nucleotides are built into the newly formed DNA strand. The proliferation can be measured by offering a non-natural nucleotide derivative (bromo deoxy uridine, BrdU) to the cells for the new synthesis; the BrdU can be subsequently detected with specific antibodies. The amount of newly synthesized DNA can be quantified fluorimetrically and provides proportional information on the degree of the cell division process. Proliferation was determined by setting the untreated control to 100% and the measured values of the samples treated with the substances were in reference to that figure. For a relative proliferation of less than 80% the substance effect is said to be inhibitive, for greater than or equal to 120% the substance effect is considered to be stimulative. The CyQuant Assay Cell Proliferation Assay from Molecular Probes was used for this test according to manufacturer's directions.

[4] = test system: organo-typical cell cultures (reconstructed dermal papillae); experiment: ATP production, ATPLite-M luciferase assay; conditions: dermal papillae cells
Protocol: ATP determinations were made using the ATPLite™-M Assays (from Packard). The test principle of this assay is based on the fact that the lucerifase from Photinus pyralis catalyzes a reaction in which, in the presence of ATP, D-luciferin is converted to oxyluciferin. Green light is emitted in this reaction and can be measured with an illuminometer. The emitted bioluminescence light is proportional to the amount of ATP present. Determination of ATP activity is carried out in organo-typical cell cultures (reconstructed dermal papillae according to EP 1 455 854). Treatment with the substance mixture is carried out for 24 hours against an untreated control. The cells were then lysed with 100 μl/cavity of a lyse buffer contained in a test kit for 5 minutes on a shaker. The cells were then incubated an additional 5 minutes with 100 μl/cavity of the supplied substrate solution on the shaker, and the reaction mixture was subsequently transferred into a black microtitre plate. Luminescence was measured after an incubation time of 10 minutes in the dark.

[5] = test system: Hepatocyte Growth Factor (HGF); experiment: HGF release from reconstructed hair follicle models, ELISA
Description: (§2) Both the Hepatocyte Growth Factor (HGF) and Keratinocyte Growth Factor (KGF) are important regulators of the hair cycle. A change in the availability for the substances that regulate the hair cycle in comparison with the untreated controls should be assumed. The release of HGF and KGF can be quantified with the help of commercially available ELISA kits (Quantikine, RnD-Systems, Wiesbaden, Germany). For this, reconstructed hair follicle models, which are described in the European patent 1 455 854, were incubated with the test substances for 72 hours and the concentration of the growth factors in the medium was determined in the described manner. In order to be able to rule out that the described effects could have been caused by unreacted sugar (glucose or lactose), the respective individual components were tested at the highest possible concentration. The quantities of the untreated controls were set to 100% and the quantities of the treated samples were relative to these. The standard deviations were calculated from the three biological approaches.

IL-8 = experiment: Basal release of IL-8 from HaCaT keratinocytes, ELISA; conditions: 0.5%
Protocol: Measurement of the basal release of IL-8 provides information on the effects of substances on inflammation reactions. IL-8 is a pro-inflammatory cytokine, which plays a central role in the inflammation cascade of the skin. A reduction of the basal release of IL-8 points to potential inflammation inhibiting effects of the studied substances. In order to determine the release of the IL-8, HaCaT keratinocytes were incubated in Hanks medium with glutamax, 5% FCS and antibiotics in 24 well culture vessels. On day 2 after seeding, cells were incubated with the test substances in a concentration of 0.5%. After treatment for 15-20 h the cell culture supernatant was removed and the amount of released IL-8 was quantified by ELISA. The Quantikine IL-8 from RnD-Systems (Wiesbaden, Germany) was used for these analyses. Values illustrated in Table 5 are relative values with respect to the untreated controls from 4 independent experiments.

[6] = test system: Keratinocyte Growth Factor (KGF); experiment: KGF release from reconstructed hair follicle models, ELISA
Description: as §2

[7] = 0.40% w/v, 72 hours, untreated = 100%
[8] = reconstructed hair follicle model

Row | SMILES | Differential gene expression IGFBP3 (Catagen) (IGFBP3; 0.01% (wt. %)) | Differential gene expression IGFBP3 (Catagen) (IGFBP3; 0.1% (wt. %)) | Differential gene expression TGFβ2 (Catagen) (TGF-beta 2; 0.01% (wt. %)) | Differential gene expression TGFβ2 (Catagen) (TGF-beta 2; 0.1% (wt. %)) | Differential gene expression KGF (Anagen) (KGF; 0.01% (wt. %)) | Differential gene expression KGF (Anagen) (KGF; 0.1% (wt. %)) | Differential gene expression TGFβ1 (Catagen) (TGF-beta 1; 0.01% (wt. %)) | Differential gene expression TGFβ1 (Catagen) (TGF-beta 1; 0.1% (wt. %)) | Differential gene expression HGF (Anagen) (HGF; 0.01% (wt. %)) | Differential gene expression HGF (Anagen) (HGF; 0.1% (wt. %)) | other results
1 | N[C@@H](CCCCNCC(=O)[C@@H](O)[C@H](O)[C@H](O)CO)C(=O)O [Fructoselysine (12), N-ε-fructosyllysine] | −1.44 | −1.83 | −2.40 | −2.40 | −1.96 | −2.49 | 1.04 | −1.10 | −1.92 | −1.69 | 
2 | Cc1c(O)c(=O)ccn1CCCC[C@H](N)C(=O)O [Maltosine (15), maltosine] |  | 7.55 |  | −2.24 |  | −1.45 |  | 3.39 |  | −2.09 | Gene expression of markers of catagen (in words) [1]: simultaneously increased gene expression of markers of catagen
3 | CC1NC(NCCC[C@H](N)C(=O)O)=NC1=O (stereo partly drawn) [Ornithinoimidazolinone (16), ornithinoimidazolinone] |  | −1.60 |  | −1.66 |  | −1.25 |  | 1.08 |  | −3.30 | 
4 | O=CC(=O)C[C@H](O)[C@H](O)CO [3-Desoxyglucosulose (18), 3-desoxyglucosulose] | −1.20 | −2.12 | −1.67 | −1.54 | −1.33 | −1.93 | 1.02 | −1.27 | −2.09 | −1.78 | 
5 | N[C@@H](CCCCNCC(=O)O)C(=O)O [Carboxymethyllysine (13), N-ε-carboxymethyllysine] |  | 1.98 |  | −1.07 |  | 1.24 |  | 1.35 |  | −1.77 | 
6 | Cc1occc(=O)c1O [Maltol, 3-hydroxy-2-methyl-4H-pyran-4-one] | −1.69 |  | −1.86 |  | −1.87 |  | −1.28 |  | −1.23 |  | Differential gene expression IGFBP3 (Catagen) (IGFBP3; 0.025% (wt. %)): −3.63; Differential gene expression TGFβ2 (Catagen) (TGF-beta 2; 0.025% (wt. %)): −3.21; Differential gene expression KGF (Anagen) (KGF; 0.025% (wt. %)): −3.02; Differential gene expression TGFβ1 (Catagen) (TGF-beta 1; 0.025% (wt. %)): −1.20; Differential gene expression HGF (Anagen) (HGF; 0.025% (wt. %)): 1.07
7 | OC[C@H]1O[C@@H](O[C@H]2[C@H](O)[C@@H](O)C(O)O[C@@H]2CO)[C@H](O)[C@@H](O)[C@H]1O (stereo partly drawn) [Lactose, D-(+)-lactose] |  |  |  |  |  |  |  |  |  |  | Vitality MW (fibroblasts [2]; 250 μg/ml): 97.5%; Vitality MW (fibroblasts [2]; 500 μg/ml): 98.6%; Vitality MW (fibroblasts [2]; 1000 μg/ml): 102.0%; Vitality MW (fibroblasts [2]; 2000 μg/ml): 116.4%; Vitality MW (fibroblasts [2]; 4000 μg/ml): 119.8%; Effect on cell division activity of fibroblasts (in words) (fibroblasts [3]): No effect could be detected; Proliferation MW (fibroblasts [3]; 250 μg/ml): 107.2%; Proliferation MW (fibroblasts [3]; 500 μg/ml): 90.4%; Proliferation MW (fibroblasts [3]; 1000 μg/ml): 111.7%; Proliferation MW (fibroblasts [3]; 2000 μg/ml): 107.6%; Proliferation MW (fibroblasts [3]; 4000 μg/ml): 77.5%; Effect on synthesis rate of ATP (in words) [4]: did not lead at any time and at any concentration to a change; HGF release MW % [5, 7]: 65.3%; Effect on release of HGF (in words) [5, 8]: reduced release of HGF; Effect on basal release of IL-8 (in words) (IL-8): did not lead to a significant change; KGF release MW % [6, 7]: 101.2%; Effect on KGF release (in words) [6, 8]: distinct effect due to treatment with sugars (lactose and glucose) could not be established
